In brackets after ≈: the same amount, converted by molar mass. Several values for one entry are separate records, joined by “and”; a condition that tells them apart may be missing. Identical values can stand only once.
Legend:
human red blood cells = assay: Hemolysis assay; format: cell-based; settings: human, 1 h
Method: (§1) Human whole blood was washed three times with 3 volumes of 0.9% NaCl and then resuspended in the same medium to a concentration of 0.5 × 10^8 cells/mL, as determined by manual cell count in a Neubauer hemocytometer. The washed cells were then added to 384-well plates containing the test compounds to a final volume of 50 µL. After shaking on a plate shaker for 10 min, the plates were incubated for 1 h at 37 °C. After incubation, the plates were centrifuged at 1000× g for 10 min to pellet the cells and debris; 25 µL of the supernatant was then transferred to a polystyrene 384-well assay plate.
(§2) Hemolysis was monitored by measuring the supernatant absorbance at […] (OD405). The absorbance was measured using a Tecan M1000 Pro monochromator plate reader. HC10 and HC50 (10% and 50% hemolysis concentrations, respectively) were calculated by curve fitting of inhibition vs. log(concentration) using a sigmoidal dose–response function with variable fitting values for top, bottom, and slope. In addition, the maximal percentage of hemolysis is reported as DMax, indicating any compounds with partial hemolysis. The curve fitting was implemented using Pipeline Pilot’s dose–response component. […] Any value with > indicated sample with no activity (low DMax value) or samples with HC10 values above the maximum tested concentration (higher DMax value).
(§3) In addition, samples were flagged as partially hemolytic if DMax ≥ 50%, even for HC10 > the maximum tested concentration. […]

Hemolysis assay = format: cell-based, human; settings: human, Dmax (maximal percentage of hemolysis)
Method: as §1, §2, §3

[1] = system: human embryonic kidney cell line HEK293 (ATCC CRL-1573); assay: in vitro; format: cell-based; settings: human, 20 h
Method: (§4) HEK293 cells were counted manually in a Neubauer hemocytometer and then plated in 384-well plates containing the test compounds to give a density of 5000 cells per well in a final volume of 50 µL. DMEM supplemented with 10% FBS was used as the growth medium, and the cells were incubated together with the compounds for 20 h at 37 °C in 5% CO2.
(§5) The cytotoxicity (or cell viability) was measured by fluorescence, ex: 560/10 nm, em: 590/10 nm (F560/590), after addition of 5 µL of 25 µg/mL resazurin (2.3 µg/mL final concentration) and after incubation for further 3 h at 37 °C in 5% CO2. The fluorescence intensity was measured using a Tecan M1000 Pro monochromator plate reader with automatic gain control. The CC50 (50% cytotoxicity concentration) values were calculated by curve fitting of inhibition vs. log(concentration) using a sigmoidal dose–response function, with variable fitting values for bottom, top, and slope. In addition, the maximal percentage of cytotoxicity is reported as DMax, indicating any compounds with partial cytotoxicity. The curve fitting was implemented using Pipeline Pilot’s dose–response component. The results were similar to those obtained by other curve-fitting tools, such as GraphPad’s Prism and IDBS’s XlFit. Any value with > indicated samples with no activity (low DMax value) or samples with CC50 values above the maximum tested concentration (higher DMax value).
(§6) In addition, samples were flagged as partially cytotoxic if DMax ≥ 50%, even for CC50 > the maximum tested concentration.
(§7) Tamoxifen served as a positive cytotoxicity standard. Melittin was used as a positive hemolytic standard.

in vitro = format: cell-based, human; settings: human, CC50
Method: as §4, §5, §6, §7

[2] = Ion permeability and rupture of planar lipid bilayers; settings: for concentration up to which addition did not increase the ion permeability of the lipid bilayers: DPhPC uncharged membranes; for Cbr (threshold concentration required to rupture the bilayer): DPhPC, 0.1 M KCl, pH 7.4, 100 mV
Method: Synthetic 1,2-diphytanoyl-sn-glycero-3-phosphocholine (DPhPC) and 1,2-diphytanoyl-sn-glycero-3-phospho-(1′-rac-glycerol) (DPhPG) were purchased from Avanti® Polar Lipids (Avanti Polar Lipids, Inc., Alabaster, AL, USA). A KCl solution (0.1 M) was buffered with 5 mM HEPES, pH 7.4. Bilayer lipid membranes were prepared from DPhPC or DPhPG using a monolayer-opposition technique on a 50 µm-diameter aperture in a 10 µm-thick Teflon film separating the cis- and trans-compartments of the Teflon chamber. Experiments were performed in chambers containing 0.1 M KCl, 5 mM Hepes-KOH, pH 7.4.
The test compounds (4, 20, 22) were added to the cis-chamber as 10 mg/mL solutions in ethanol (to mimic the physiologically relevant conditions) up to the final concentrations and the effects of the compounds on the ion permeability of the model lipid membranes were studied. Ag/AgCl electrodes with 1.5% agarose/2 M KCl bridges were used to apply the transmembrane voltage (V) and measure the transmembrane current (I). ‘Positive voltage’ refers to the case in which the cis-side compartment is positive with respect to the trans-side. All experiments were performed at room temperature.
The current was measured using an Axopatch 200B amplifier (Molecular Devices, LLC, Orlean, CA, USA) in voltage clamp mode. Data were digitized using a Digidata 1440A and analyzed using pClamp 10.0 (Molecular Devices, LLC, Orlean, CA, USA) and Origin 8.0 (OriginLab Corporation, Northampton, MA, USA). The data were acquired at a sampling frequency of 5 kHz using low-pass filtering at 200 Hz.
The threshold concentrations (Cbr) of the derivatives required to rupture the bilayers composed of DPhPC or DPhPG at a transmembrane voltage of 100 mV were determined. Cbr-values were averaged from 3 to 4 bilayers and presented as mean ± standard error (p ≤ 0.05).

[3] = system: Cryptococcus neoformans (ATCC 208821); assay: Antifungal growth inhibition (MIC, CO-ADD); settings: inhibition ≥70%, two replicates per cell
Method: Antimicrobial, cytotoxicity, and hemolytic activity screening of the synthesized derivatives was carried out in the CO-ADD (The Community for Antimicrobial Drug Discovery) (http://www.co-add.org, accessed on 24 November 2020) and included analysis for antibacterial properties, cytotoxicity, and hemolytic activity.
The hit confirmation test included five bacteria, Escherichia coli (ATCC 25922), Klebsiella pneumoniae (ATCC 700603), Acinetobacter baumannii (ATCC 19606), Pseudomonas aeruginosa (ATCC 27853), and Staphylococcus aureus (ATCC 43300), and two fungi, Candida albicans (ATCC 90028) and Cryptococcus neoformans (ATCC 208821). […] The compounds were also screened for hemolysis of human red blood cells (human whole blood, strain ARCBS 5400 00150).
Samples were prepared in DMSO and water to a final testing concentration of 32 µg/mL or 20 µM (unless otherwise indicated in the data sheet) and serially diluted twofold up to 8 times. Each sample concentration was prepared in 384-well plates: non-binding surface plate (NBS; Corning 3640) for each bacterial/fungal strain, tissue-culture treated (TC-treated; Corning 3712/3764) black for mammalian cell types and polypropylene 384-well plates (PP; Corning 3657) for hemolysis assays. The final DMSO concentration was maintained to a maximum of 0.5%. All sample preparation procedures were performed using liquid-handling robots. All screening was performed as two replica (n = 2), with both replicas on different assay plates, but from single plating and performed in a single screening experiment (microbial incubation). In addition, two values are used as quality controls for individual plates: Z′-Factor [1 − (3* (sd(NegCtrl) + sd(PosCtrl))/(average(PosCtrl)-average(NegCtrl)))] and standard antibiotic controls at different concentrations (>MIC and <MIC).
Fungi strains were cultured for 3 days on yeast extract-peptone dextrose (YPD) agar at 30 °C. A yeast suspension of 1 × 10^6 to 5 × 10^6 CFU/mL (as determined by OD530) was prepared from five colonies. The suspension was subsequently diluted and added to each well containing a test compound, giving a final cell density of fungi suspension of 2.5 × 10^3 CFU/mL and a total volume of 50 µL. All plates were covered and incubated at 35 °C for 36 h without shaking.
The absorbance was measured using a Biotek Multiflo Synergy HTX plate reader. In both cases, the percentage of growth inhibition was calculated for each well, using the negative control (media only) and positive control (fungi without inhibitors) in the same plate. […] In addition, the maximal percentage of growth inhibition is reported as DMax, indicating any compounds with marginal activity.
Fluconazole was used as a positive fungal inhibitor standard for C. albicans and C. neoformans. […] The quality control (QC) of the assays was performed using Z′-factors calculated from the negative (media only) and positive controls (bacterial, fungal, or cell culture without inhibitor) and the standards.

Structure (SMILES) | Dmax (maximal percentage of hemolysis) (human red blood cells) [%] | hemolysis at 1 h (Hemolysis assay) [%] | CC50 [1] [µg/mL] | CC50 at 20 h (in vitro) [µg/mL] | concentration up to which addition did not increase the ion permeability of the lipid bilayers [2] [µg/mL] | Cbr (threshold concentration required to rupture the bilayer) [2] [µg/mL] | HC50 (human red blood cells) | MIC ([3]; C. neoformans) | MIC ([3]; Cryptococcus neoformans, ATCC208821, C. neoformans) [µg/mL]
COC(=O)/C(CCC=C(C)C)=C1\[C@@H](OC(C)=O)C[C@@]2(C)[C@@H]1C[C@@H](O)[C@@H]1[C@@]3(C)CC[C@H](NCCCNCCCCN)[C@@H](C)C3CC[C@@]12C (stereo partly drawn) [Compound 20, Methyl (2Z)-2-[(3β,4α,8α,11α,14β,16β)-16-(acetyloxy)-3-({3-[(4aminobutyl)amino]propyl}amino)-11-hydroxy-4,8,10,14-tetramethylgonan-17-ylidene]-6-methylhept-5-enoate] | 60.5 | 61.8 | 14.9 (≈ 22.6 µM) | 15.4 (≈ 23.4 µM) | ≤ 275 | 275 ± 25 | – | – | –
COC(=O)/C(CCC=C(C)C)=C1\[C@@H](OC(C)=O)C[C@@]2(C)[C@@H]1C[C@@H](O)[C@@H]1[C@@]3(C)CC[C@H](NCCCNCCCCNCCCN)[C@@H](C)C3CC[C@@]12C (stereo partly drawn) [Compound 22, Methyl (2Z)-2-[(3β,4α,8α,11α,14β,16β)-16-(acetyloxy)-3-{[3-({4-[(3-aminopropyl)amino]butyl}amino)propyl]amino}-11-hydroxy-4,8,10,14-tetramethylgonan-17-ylidene]-6-methylhept-5-enoate] | 11.3 | 15.1 | 18.1 (≈ 25.3 µM) | 18.8 (≈ 26.3 µM) | ≤ 250 | 250 ± 11 | >32 >32 µg/mL | 1.0 µg/mL and 2.0 µg/mL | 1 (≈ 1.4 µM)

— PMC10056636, “3-Amino-Substituted Analogues of Fusidic Acid as Membrane-Active Antibacterial Compounds” (Membranes, 2023)
